The test has as its system brain. Nature of the test: Maturation of TTM-002 capsid, NGS enrichment in brain of CD-1 Outbred mice. The format is in vivo. The settings on record: NGS fold-enrichment in the brain of CD-1 Outbred mice; intravenous, 1.0×10^12 VG/dose, 14 days; RNA; relative to non-matured TTM-002 control. The text has this:
This Example describes maturation of the TTM-001 (SEQ ID NO: 981 (amino acid) and 983 (DNA), comprising SEQ ID NO: 941) and TTM-002 (SEQ ID NO: 982 (amino acid) and 984 (DNA), comprising SEQ ID NO: 2) capsid variants to further enhance their transduction and biodistribution in the central nervous system and evolve the AAV capsid variants to provide further cross-species compatibility. Two approaches were used to mature the TTM-001 and TTM-002 capsid sequences in order to randomize and mutate within and around the peptide insert comprised within loop IV of the capsid variant. […] In the first maturation approach, sets of three contiguous amino acids were randomized across the mutagenesis region in the TTM-001 and TTM-002 sequences, which spanned from position 450 to position 466, numbered according to SEQ ID NO: 981 and 982. In the second maturation approach, mutagenic primers were used to introduce point mutations at a low frequency, scattered across the mutagenesis region in the TTM-001 and TTM-002 sequences ranging from position 449 to position 466, numbered according to SEQ ID NO: 981 and 982. AAV capsid variants arising from each maturation approach for TTM-001 were pooled together and AAV capsid variants arising from each maturation approach for TTM-002 were also pooled together, for subsequent testing and characterization in mice.
The library of pooled matured AAV capsid variants generated from TTM-001 or library of pooled matured AAV capsid variants generated from the TTM-002 matured AAV capsid variant each were intravenously injected into the tail vein of three female CD-1 Outbred mice (Charles River) at a dose of 1.0×10^12 VG/dose. After 14-days in life, the brains of the mice were isolated and RNA was extracted. Following RNA recovery and RT-PCR amplification, a systematic NGS enrichment analysis was performed to calculate the fold enrichment ratio relative to the corresponding TTM-001 or TTM-002 control, and the peptides comprised within the variants were identified. The data for the TTM-001 matured capsid variants is provided in Table 13 and the data for the TTM-002 matured capsid variants is provided in Table 14.

In the case of KFEQGHDSPHKSGQNQQT, the “Fold enrichment over TTM-002” value was 2.22.

Regarding KTINGHDSPHKSRQNDQT, the “Fold enrichment over TTM-002” value amounted to 2.01.

With KMEYGHDSPHKSGQNQQT, the “Fold enrichment over TTM-002” value worked out at 2.71.

On to KMEGGHDSPHKSGQNQQT, for which the “Fold enrichment over TTM-002” value worked out at 2.72.

Take KTINRQRSPHKSGQNQQT: the “Fold enrichment over TTM-002” value is listed as 2.11.

KVEWGHDSPHKSGQNQQT: the “Fold enrichment over TTM-002” value is given as 2.15.

In the case of KMEVGHDSPHKSGQNQQT, the “Fold enrichment over TTM-002” value is 2.11.

Consider KTINGHDSPHKRGQHRQT, for which the “Fold enrichment over TTM-002” value stood at 4.20.

Regarding KIINGHDSPHKSGLTQQT, the “Fold enrichment over TTM-002” value is 2.17.

As for KAEVGHDSPHKSGQNQQT, the “Fold enrichment over TTM-002” value stood at 2.15.

Consider KISNGHDSPHKSAQNQQT, for which the “Fold enrichment over TTM-002” value was 2.03.

Turning to KTINGHDSPHKSGRRRQT, the “Fold enrichment over TTM-002” value came out at 2.04.

Regarding KTINGHLSPHYYGQNQQT, the “Fold enrichment over TTM-002” value is 2.13.

With KMEFGHDSPHKSGQNQQT, the “Fold enrichment over TTM-002” value is 2.21.

As to KMELGHDSPHKSGQNQQT, the “Fold enrichment over TTM-002” value was 2.13.

As to KTINGHDSPHLLWQNQQT, the “Fold enrichment over TTM-002” value stood at 2.12.

In the case of KLPEGHDSPHKSGQNQQT, the “Fold enrichment over TTM-002” value is 2.19.

With KTINGHLSPHYFGQNQQT, the “Fold enrichment over TTM-002” value is reported as 2.41.

For KIEGGHDSPHKSGQNQQT, the “Fold enrichment over TTM-002” value turned out to be 2.00.

As to KMPEGHDSPHKSGQNQQT, the “Fold enrichment over TTM-002” value stood at 3.18.

Regarding KTSNGDDSPHKSGRNQQT, the “Fold enrichment over TTM-002” value is given as 2.17.

On to KTPWEHDSPHKSGQNQQT, for which the “Fold enrichment over TTM-002” value was 2.05.

On to KIENGHDSPHKSGQNQQT, for which the “Fold enrichment over TTM-002” value came out at 2.19.

Consider KQQQGHDSPHKSGQNQQT, for which the “Fold enrichment over TTM-002” value is given as 2.01.

KQEVGHDSPHKSGQNQQT: the “Fold enrichment over TTM-002” value was 2.07.

As to KANNGQDSPHKSGQNQQT, the “Fold enrichment over TTM-002” value amounted to 2.67.

Take KTINGHESPHKSAQNHQT: the “Fold enrichment over TTM-002” value came out at 2.07.

Take KTINGHDSPHVIDQNQQT (KTINGHDSPHVTDQNQQT): the “Fold enrichment over TTM-002” value turned out to be 5.20.

Take KCEIGHDSPHKSGQNQQT: the “Fold enrichment over TTM-002” value came out at 2.10.

With KIEYGHDSPHKSGQNQQT, the “Fold enrichment over TTM-002” value worked out at 2.41.

In the case of KADYGHDSPHKSGQNQQT, the “Fold enrichment over TTM-002” value worked out at 2.40.

In the case of KMETGHDSPHKSGQNQQT, the “Fold enrichment over TTM-002” value is on record as 2.12.

On to KHDWGHDSPHKSGQNQQT, for which the “Fold enrichment over TTM-002” value amounted to 2.00.

Regarding KMEIGHDSPHKSGQNQQT, the “Fold enrichment over TTM-002” value stood at 2.34.

In the case of KIEMGHDSPHKSGQNQQT, the “Fold enrichment over TTM-002” value came to 2.05.

As to KTINGHPSPHYLGQNQQT, the “Fold enrichment over TTM-002” value is 2.14.

In the case of KADMGHDSPHKSGQNQQT, the “Fold enrichment over TTM-002” value came out at 2.48.

With KAEQGHDSPHKSGQNQQT, the “Fold enrichment over TTM-002” value turned out to be 2.14.

As to KTINGHSSPHYFGQNQQT, the “Fold enrichment over TTM-002” value is listed as 2.05.

As for KIESGHDSPHKSGQNQQT, the “Fold enrichment over TTM-002” value was 2.11.

For the sequence KADWGHDSPHKSGQNQQT, the “Fold enrichment over TTM-002” value is 2.32.

KCEWGHDSPHKSGQNQQT: the “Fold enrichment over TTM-002” value turned out to be 2.68.

Take KTINGNYSPHKIGQNQQT: the “Fold enrichment over TTM-002” value is given as 2.02.

Consider KMEAGHDSPHKSGQNQQT, for which the “Fold enrichment over TTM-002” value is reported as 2.12.

On to KTPQDHDSPHKSGQNQQT, for which the “Fold enrichment over TTM-002” value is 2.00.

Consider “KVEYGHDSPHKSGQNQQT (peptide inserted in AAV capsid)”, for which the “Fold enrichment over TTM-002” value came out at 2.17.

In the case of KMEWGHDSPHKSGQNQQT, the “Fold enrichment over TTM-002” value came to 2.38.

Take KTINGHDSPHKSAQNQWT: the “Fold enrichment over TTM-002” value was 2.07.

As for KTINGHYSPHLFGQNQQT, the “Fold enrichment over TTM-002” value is given as 2.02.

KCEYGHDSPHKSGQNQQT: the “Fold enrichment over TTM-002” value stood at 2.36.

For the sequence KMDAGHDSPHKSGQNQQT, the “Fold enrichment over TTM-002” value was 2.15.
